We go through 2 molecules from PMC7308271, “Discovery of a new class of orthosteric antagonists with nanomolar potency at extrasynaptic GABAA receptors” (Scientific Reports, 2020).

Entries after “also recorded” stand apart in the source; their conditions may differ.

In test [1] the test system is α1,2,6 GABAΑ receptors. Nature of the test: FMP assay, α1,2,6 receptors (summary). Type of test: cell-based, human. Particulars: range over subtypes; read-out: potency (IC50) at α1,2,6 receptors. On the procedure:
(§1) HEK293 cells were maintained in DMEM containing GlutaMAX-I, supplemented with 10% FBS and 1% penicillin-streptomycin and incubated at 37 °C and a humidity of 5% CO2. For expression of δ-containing GABAΑ receptors, a HEK293 Flp-In^ΤΜ cell line stably expressing the human GABAΑ δ-subunits (referred to as δ-HEK) was used and the γ-containing subtypes was expressed in a background HEK293 Flp-In^ΤΜ cell line stably expressing the G-protein coupled peptide receptor NPBWR2 (referred to as HEK background)[26], both positively selected for using 200 μg/mL hygromycin B. α1β2γ2 receptors were stably expressed in a HEK293 cell line maintained as above but with no selection (gift from Marianne L. Jensen, Neurosearch). […]
(§2) The FMP assay was performed as previously described with a few modifications. […] Data was obtained as changes in fluorescence units (∆RFU) by measuring emission at 560 nm caused by excitation at 530 nm. […]
(§3) Data obtained in the FMP assay are given as relative changes in fluorescence units (ΔRFU) by subtracting the average of the baseline fluorescence signal from the peak fluorescence signal after compound addition. […]

Test [2] concerns the target T1, human α4β1δ receptors in δ-HEK cells (Homo sapiens, UniProt P18505+P48169).
T1 construct: expressed in transfected cells; host or cells: δ-HEK (HEK293 Flp-In stably expressing human δ), transiently transfected with α4 and β1 1:1
Nature of the test: Whole-cell patch-clamp electrophysiology, concentration-response. The format is cell-based. The text has this: (§4) To express recombinant GABAΑ receptors human α1, α2, α3, α5, α6, β2, γ2 (pcDNA3.1/Zeo) and α4, β1 (pUNIV)[26] subunit cDNA were transiently transfected into either δ-HEK or HEK background cells. δ-HEK cells were transfected with α- and β-subunits in a 1:1 ration whereas HEK background cells were transfected with α-, β- and γ-subunits in a 1:1:2 ratio. Human BGT1 (pcDNA5/FRT)[43] was transiently transfected into the δ-HEK cell line. δ-HEK cells transfected for whole-cell patch-clamp recordings were co-transfected with green fluorescent protein (GFP) as well as α- and β-subunits in a 0.5:1:1 ratio (0.8 μg + 1.6 μg + 1.6 μg in a 6 cm dish) in order to identify transfected cells. The transfection was carried out using Polyfect as transfection reagent according to the manufactures protocol expect for using half the recommended volume of Polyfect.
In general terms: The patch-clamp technique gives a direct electrical read-out from membranes.

For test [3], the system named is α3−5 containing GABAΑ receptors. As to the kind of experiment: FMP assay, α3−5 containing receptors (summary). The format is cell-based, human. The settings on record: range over subtypes; read-out: potencies (IC50) at α3−5 containing receptors. On the procedure: as §1, §2, §3
Test [4] addresses T2, human BGT1 (Homo sapiens, UniProt P48065).
T2 construct: expressed in transfected cells; host or cells: δ-HEK cells, transient transfection (pcDNA5/FRT)
T2 sequence (P48065 1-614): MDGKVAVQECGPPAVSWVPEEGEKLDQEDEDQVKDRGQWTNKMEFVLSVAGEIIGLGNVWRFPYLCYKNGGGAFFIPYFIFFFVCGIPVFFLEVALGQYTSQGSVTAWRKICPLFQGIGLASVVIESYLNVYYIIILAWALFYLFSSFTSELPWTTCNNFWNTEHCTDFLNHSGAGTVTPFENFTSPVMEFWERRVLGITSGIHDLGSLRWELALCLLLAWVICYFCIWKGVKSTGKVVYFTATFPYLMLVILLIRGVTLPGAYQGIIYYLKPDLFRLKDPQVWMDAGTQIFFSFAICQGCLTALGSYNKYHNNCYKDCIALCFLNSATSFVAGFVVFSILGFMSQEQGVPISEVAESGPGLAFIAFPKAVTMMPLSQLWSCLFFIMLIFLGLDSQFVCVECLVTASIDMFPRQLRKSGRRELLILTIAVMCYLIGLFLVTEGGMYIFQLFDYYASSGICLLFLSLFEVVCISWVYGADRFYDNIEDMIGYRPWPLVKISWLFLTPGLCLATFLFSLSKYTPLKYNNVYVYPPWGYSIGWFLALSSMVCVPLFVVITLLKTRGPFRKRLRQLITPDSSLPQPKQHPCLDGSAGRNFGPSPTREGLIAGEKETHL
As to the kind of experiment: Fluorescence interference control: BGT1-mediated GABA uptake in the FMP assay. The format is cell-based. The settings on record: 110 μM GABA uptake by BGT1 in δ-HEK cells; 2027 at 30, 10, 3 μM.
Text: as §4
assay (perf ormed essentially as previously described in methods section and based on Al-Khawaja et al.).
in d-HEK cells was not decreased/quenched by 2027 in any of the tested concentrations. Data are shown as
means ± SD f rom a representative expe riment perf orme d in triplicate (n=2).
BGT1 expressed in HEK-δ cells

T1 sequence (P48169 36-554): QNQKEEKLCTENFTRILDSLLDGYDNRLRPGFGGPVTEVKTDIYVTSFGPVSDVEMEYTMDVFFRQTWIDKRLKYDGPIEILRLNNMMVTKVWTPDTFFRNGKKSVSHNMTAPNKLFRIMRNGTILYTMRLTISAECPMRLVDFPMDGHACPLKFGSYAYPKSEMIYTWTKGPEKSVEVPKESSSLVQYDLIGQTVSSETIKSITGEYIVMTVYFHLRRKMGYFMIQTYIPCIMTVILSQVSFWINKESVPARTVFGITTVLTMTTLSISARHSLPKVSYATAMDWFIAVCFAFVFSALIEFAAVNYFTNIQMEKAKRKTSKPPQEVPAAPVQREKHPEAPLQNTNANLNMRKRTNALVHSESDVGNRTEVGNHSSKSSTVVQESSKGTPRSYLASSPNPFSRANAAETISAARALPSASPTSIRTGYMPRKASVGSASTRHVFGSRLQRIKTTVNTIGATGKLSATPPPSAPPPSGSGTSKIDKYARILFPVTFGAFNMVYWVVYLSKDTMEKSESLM
T1 sequence (P18505 26-474): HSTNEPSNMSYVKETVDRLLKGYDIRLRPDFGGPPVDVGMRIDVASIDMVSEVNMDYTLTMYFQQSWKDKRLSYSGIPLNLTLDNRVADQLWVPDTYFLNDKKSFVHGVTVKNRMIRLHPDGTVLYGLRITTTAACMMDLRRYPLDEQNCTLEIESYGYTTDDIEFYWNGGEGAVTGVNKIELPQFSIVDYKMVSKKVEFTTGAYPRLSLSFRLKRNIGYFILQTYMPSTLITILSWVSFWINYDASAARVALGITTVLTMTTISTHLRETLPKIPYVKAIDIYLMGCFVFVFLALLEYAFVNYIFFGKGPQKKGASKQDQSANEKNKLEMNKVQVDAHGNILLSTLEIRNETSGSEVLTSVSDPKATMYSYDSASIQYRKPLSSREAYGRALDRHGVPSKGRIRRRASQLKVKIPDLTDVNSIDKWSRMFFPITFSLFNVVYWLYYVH
T1 sequence (O14764 25-452 partner): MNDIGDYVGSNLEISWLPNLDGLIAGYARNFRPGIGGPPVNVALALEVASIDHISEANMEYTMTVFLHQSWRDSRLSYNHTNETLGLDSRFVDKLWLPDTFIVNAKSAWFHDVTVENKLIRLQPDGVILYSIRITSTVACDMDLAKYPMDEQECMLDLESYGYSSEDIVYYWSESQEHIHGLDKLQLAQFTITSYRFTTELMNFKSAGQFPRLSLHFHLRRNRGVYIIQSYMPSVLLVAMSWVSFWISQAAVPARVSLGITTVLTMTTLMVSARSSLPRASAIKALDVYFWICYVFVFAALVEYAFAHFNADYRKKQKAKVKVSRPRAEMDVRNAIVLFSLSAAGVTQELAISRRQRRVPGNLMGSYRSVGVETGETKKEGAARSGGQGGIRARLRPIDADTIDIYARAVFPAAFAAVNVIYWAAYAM

In the case of `O=C(Nc1cccc(C(=O)N2CCC3(CCNCC3)CC2)c1)c1cccs1` [compound 018, N-(3-(3,9-diazaspiro[5.5]undecane-3-carbonyl)phenyl)thiophene-2-carboxamide], the IC50 (usually the concentration that inhibits the measured activity by half) in test [1] was 240 to 790 nM; in test [2], 10.8 nM; in test [3] it was 37 to 88 nM. Further, the “potency in patch-clamp relative to FMP assay” value in test [2] (α4β1δ) was 9 times.

Regarding `CC(=O)Nc1cccc(C(=O)N2CCC3(CCNCC3)CC2)c1` [compound 2027, N-(3-(3,9-diazaspiro[5.5]undecane-3-carbonyl)phenyl)acetamide], the “interference with / quenching of the fluorescence signal” value in test [4] is given as “does not quench; also recorded: do not interfere”.
